Assay results from ChEMBL document CHEMBL3994622, “Design and synthesis of new RAF kinase-inhibiting antiproliferative quinoline derivatives. Part 2: Diarylurea derivatives” (Eur J Med Chem, 2017).

Tests used:
Format in all cases: functional
RPMI-8226 = assay: Growth inhibition of human RPMI8226 cells assessed as cell growth at 10 uM incubated for 48 hrs by sulforhodamine B assay relative to control; details: RPMI-8226, 48 h, read-out: Activity
RXF 393 = assay: Growth inhibition of human RXF393 cells assessed as cell growth at 10 uM incubated for 48 hrs by sulforhodamine B assay relative to control; details: RXF 393, 48 h, read-out: Activity
SR = assay: Growth inhibition of human SR cells assessed as cell growth at 10 uM incubated for 48 hrs by sulforhodamine B assay relative to control; details: read-out: Activity
A549 = assay: Growth inhibition of human A549/ATCC cells assessed as cell growth at 10 uM incubated for 48 hrs by sulforhodamine B assay relative to control; details: A549, 48 h, read-out: Activity
U-251 = assay: Growth inhibition of human U251 cells assessed as cell growth at 10 uM incubated for 48 hrs by sulforhodamine B assay relative to control; details: U-251, 48 h, read-out: Activity
Hs-578T = assay: Growth inhibition of human Hs 578T cells assessed as cell growth at 10 uM incubated for 48 hrs by sulforhodamine B assay relative to control; details: read-out: Activity
SK-OV-3 = assay: Growth inhibition of human SKOV3 cells assessed as cell growth at 10 uM incubated for 48 hrs by sulforhodamine B assay relative to control; details: SK-OV-3, 48 h, read-out: Activity
SN12C = assay: Growth inhibition of human SN12C cells assessed as cell growth at 10 uM incubated for 48 hrs by sulforhodamine B assay relative to control; details: read-out: Activity
SK-MEL-2 = assay: Growth inhibition of human SK-MEL-2 cells assessed as cell growth at 10 uM incubated for 48 hrs by sulforhodamine B assay relative to control; details: SK-MEL-2, 48 h, read-out: Activity
DU-145 = assay: Growth inhibition of human DU145 cells assessed as cell growth at 10 uM incubated for 48 hrs by sulforhodamine B assay relative to control; details: DU-145, 48 h, read-out: Activity
HCC 2998 = assay: Growth inhibition of human HCC2998 cells assessed as cell growth at 10 uM incubated for 48 hrs by sulforhodamine B assay relative to control; details: HCC 2998, 48 h, read-out: Activity
HCT-116 = assay: Growth inhibition of human HCT116 cells assessed as cell growth at 10 uM incubated for 48 hrs by sulforhodamine B assay relative to control; details: HCT-116, 48 h, read-out: Activity
OVCAR-3 = assay: Growth inhibition of human OVCAR3 cells assessed as cell growth at 10 uM incubated for 48 hrs by sulforhodamine B assay relative to control; details: OVCAR-3, 48 h, read-out: Activity
EKVX = assay: Growth inhibition of human EKVX cells assessed as cell growth at 10 uM incubated for 48 hrs by sulforhodamine B assay relative to control; details: read-out: Activity
SK-MEL-5 = assay: Growth inhibition of human SK-MEL-5 cells assessed as cell growth at 10 uM incubated for 48 hrs by sulforhodamine B assay relative to control; details: SK-MEL-5, 48 h, read-out: Activity
HOP-62 = assay: Growth inhibition of human HOP62 cells assessed as cell growth at 10 uM incubated for 48 hrs by sulforhodamine B assay relative to control; details: HOP-62, 48 h, read-out: Activity
UO-31 = assay: Growth inhibition of human UO31 cells assessed as cell growth at 10 uM incubated for 48 hrs by sulforhodamine B assay relative to control; details: UO-31, 48 h, read-out: Activity
CAKI-1 = assay: Growth inhibition of human Caki1 cells assessed as cell growth at 10 uM incubated for 48 hrs by sulforhodamine B assay relative to control; details: CAKI-1, 48 h, read-out: Activity
UACC-62 = assay: Growth inhibition of human UACC62 cells assessed as cell growth at 10 uM incubated for 48 hrs by sulforhodamine B assay relative to control; details: UACC-62, 48 h, read-out: Activity
NCI-H226 = assay: Growth inhibition of human NCI-H226 cells assessed as cell growth at 10 uM incubated for 48 hrs by sulforhodamine B assay relative to control; details: NCI-H226, 48 h, read-out: Activity
MDA-MB-468 = assay: Growth inhibition of human MDA-MB-468 cells assessed as cell growth at 10 uM incubated for 48 hrs by sulforhodamine B assay relative to control; details: MDA-MB-468, 48 h, read-out: Activity
NCI-H460 = assay: Growth inhibition of human NCI-H460 cells assessed as cell growth at 10 uM incubated for 48 hrs by sulforhodamine B assay relative to control; details: NCI-H460, 48 h, read-out: Activity
KM12 = assay: Growth inhibition of human KM12 cells assessed as cell growth at 10 uM incubated for 48 hrs by sulforhodamine B assay relative to control; details: KM12, 48 h, read-out: Activity
Malme-3M = assay: Growth inhibition of human MALME-3M cells assessed as cell growth at 10 uM incubated for 48 hrs by sulforhodamine B assay relative to control; details: read-out: Activity
OVCAR-4 = assay: Growth inhibition of human OVCAR4 cells assessed as cell growth at 10 uM incubated for 48 hrs by sulforhodamine B assay relative to control; details: OVCAR-4, 48 h, read-out: Activity

Row | SMILES | growth at 10 µM (RPMI-8226) | growth at 10 µM (RXF 393) | growth at 10 µM (SR) | growth at 10 µM (A549) | growth at 10 µM (U-251) | growth at 10 µM (Hs-578T) | growth at 10 µM (SK-OV-3) | growth at 10 µM (SN12C) | growth at 10 µM (SK-MEL-2) | growth at 10 µM (DU-145) | growth at 10 µM (HCC 2998) | growth at 10 µM (HCT-116) | growth at 10 µM (OVCAR-3) | growth at 10 µM (EKVX) | growth at 10 µM (SK-MEL-5) | growth at 10 µM (HOP-62) | growth at 10 µM (UO-31) | growth at 10 µM (CAKI-1) | growth at 10 µM (UACC-62) | growth at 10 µM (NCI-H226) | other results
1 | COc1cc2cc(Oc3ccc(NC(=O)Nc4ccc(C)cc4)cc3)c(C)nc2cc1OC | 101% | 82.1% | 83.1% | 102% | 99.9% | 76.5% | 87.8% | 93% | 91.5% | 102% | 104% | 107% | 113% | 107% | 100% | 66.9% | 89.2% | 98.2% | 99.3% | 102% | growth at 10 µM (MDA-MB-468): 97.1%; growth at 10 µM (NCI-H460): 108%; growth at 10 µM (KM12): 104%; growth at 10 µM (Malme-3M): 94.6%
2 | COc1cc2cc(Oc3ccc(NC(=O)Nc4ccccc4)cc3)c(C)nc2cc1OC | 38.8% | 76.7% | 42.6% | 58.4% | 48% | 78% | 48.4% | 70.7% | 78.8% | 88.7% | 105% | 42.6% | 67.1% | 63.4% | 60.8% | 103% | 65.9% | 88.7% | 88.4% | 39.8% | growth at 10 µM (OVCAR-4): 70.2%; growth at 10 µM (MDA-MB-468): 35.3%; growth at 10 µM (NCI-H460): 69%; growth at 10 µM (KM12): 70.3%; growth at 10 µM (Malme-3M): 86.4%
3 | COc1cc2cc(Sc3ccc(NC(=O)Nc4ccc(Cl)c(Cl)c4)cc3)c(C)nc2cc1OC | 54.5% | 84.4% | 52.7% | 59.5% | 70% | 85.6% | 55% | 78.8% | 72.6% | 75.5% | 101% | 67.9% | 73% | 69.4% | 71% | 92.6% | 62.8% | 64.5% | 69.5% | 90.9% | growth at 10 µM (OVCAR-4): 78.2%; growth at 10 µM (MDA-MB-468): 55.1%; growth at 10 µM (NCI-H460): 74.6%; growth at 10 µM (KM12): 74.5%; growth at 10 µM (Malme-3M): 89.9%
